According to US20070128217A1 (priority 2003, published 2007):

Experiments:
[1] = tested on: control sera (pooled serum of ten healthy LUMC hospital workers; commercial negative donor pooled serum from the Dutch bloodbank); format: binding, human; design: Binding of Control serum LUMC to linear peptides / Binding of Control serum Blood-bank to linear peptides / Binding of Control serum LUMC to looped peptides / Binding of Control Serum Blood-Bank to Looped peptides / Binding of Control serum LUMC to linear peptides of the protein M of SARS-CoV Urbani / Binding of Control serum Blood-bank to linear peptides of the protein M of SARS-CoV Urbani / Binding of Control serum LUMC to looped peptides of the protein M of SARS-CoV Urbani / Binding of Control Serum Blood-Bank to Looped peptides of the protein M of SARS-CoV Urbani: unit not given here
[2] = tested on: rabbit serum obtained by immunizing a rabbit with the SARS-CoV strain Frankfurt 1; format: binding; design: Binding of a rabbit serum to linear peptides / Binding of a rabbit serum to looped peptides / Rabbit serum linear peptides / Rabbit serum looped peptides / Binding of a rabbit serum to linear peptides of protein N of SARS-CoV Urbani (Rabbit serum linear peptides) / Binding of a rabbit serum to looped/cyclic peptides of protein N of SARS-CoV Urbani (Rabbit serum looped peptides): unit not given here
[3] = tested on: antibodies in sera from SARS patients (sera 1a, 1b, 2, 6, 37, 62, London, SARS-yellow, SARS-green); format: binding, human; design: Binding of serum 6 to linear peptides of protein X1 of SARS-CoV Urbani / Binding of serum 37 to linear peptides of protein X1 of SARS-CoV Urbani / Binding of serum 6 to looped/cyclic peptide (PEPSCAN-ELISA) / Binding of serum 37 to looped/cyclic peptide (PEPSCAN-ELISA) / Binding of serum 37 to looped/cyclic peptides of protein X1 of SARS-CoV Urbani / Binding of serum 6 to linear peptides of protein X2 / Binding of serum 37 to linear peptides of protein X2 / Binding of serum 37 to looped/cyclic peptides of protein X2 of SARS-CoV Urbani / Binding of serum 6 to linear peptides of protein M of SARS-CoV Urbani / Binding of serum 37 to linear peptides of protein M of SARS-CoV Urbani / Binding of serum 6 to looped/cyclic peptides of protein M of SARS-CoV Urbani / Binding of serum 37 to looped/cyclic peptides of protein M of SARS-CoV Urbani / Binding of serum 6 to linear peptides of protein X3 of SARS-CoV Urbani / Binding of serum 37 to linear peptides of protein X3 of SARS-CoV Urbani / Binding of serum 37 to looped/cyclic peptides of protein X3 of SARS-CoV Urbani / Binding of serum 6 to linear peptides of protein X4 of SARS-CoV Urbani / Binding of serum 37 to linear peptides of protein X4 of SARS-CoV Urbani / Binding of serum 37 to looped/cyclic peptides of protein X4 of SARS-CoV Urbani / Binding of serum 6 to linear peptides of protein X5 of SARS-CoV Urbani / Binding of serum 37 to linear peptides of protein X5 of SARS-CoV Urbani / Binding of serum 37 to looped/cyclic peptides of protein X5 of SARS-CoV Urbani / Binding of serum 6 to linear peptides of protein N of SARS-CoV Urbani / Binding of serum 37 to linear peptides of protein N of SARS-CoV Urbani / Binding of serum 6 to linear peptide (PEPSCAN-ELISA) / Binding of serum 1a to looped/cyclic peptides of protein N of SARS-CoV Urbani / Binding of serum 1b to looped/cyclic peptides of protein N of SARS-CoV Urbani / Binding of serum 2 to looped/cyclic peptides of protein N of SARS-CoV Urbani / Binding of serum 6 to looped/cyclic peptides of protein N of SARS-CoV Urbani / Binding of serum 37 to looped/cyclic peptides of protein N of SARS-CoV Urbani / Binding of serum 62 to looped/cyclic peptides of protein N of SARS-CoV Urbani / Binding of serum London to looped/cyclic peptides of protein N of SARS-CoV Urbani / Binding of serum SARS-green to looped/cyclic peptides of protein N of SARS-CoV Urbani: unit not given here

## TATIPLQASLPFGWL
[1]
  Binding of Control Serum Blood-Bank to Looped peptides: 0.8
  Binding of Control serum Blood-bank to linear peptides: 1.0
  Binding of Control serum LUMC to linear peptides: 0.8
  Binding of Control serum LUMC to looped peptides: 0.8
[2]
  Binding of a rabbit serum to linear peptides: 0.1
  Binding of a rabbit serum to looped peptides: 0.6
[3]
  Binding of serum 1a to linear peptides of protein X1 of SARS-CoV Urbani: 0.9
  Binding of serum 1a to looped/cyclic peptide (PEPSCAN-ELISA): 0.7
  Binding of serum 1b to linear peptides of protein X1 of SARS-CoV Urbani: 0.8
  Binding of serum 1b to looped/cyclic peptide (PEPSCAN-ELISA): 0.6
  Binding of serum 2 to linear peptides of protein X1 of SARS-CoV Urbani: 0.6
  Binding of serum 2 to looped/cyclic peptide (PEPSCAN-ELISA): 0.5
  Binding of serum 6 to linear peptides of protein X1 of SARS-CoV Urbani: 0.7
  Binding of serum 6 to looped/cyclic peptide (PEPSCAN-ELISA): 0.5
  Binding of serum 37 to linear peptides of protein X1 of SARS-CoV Urbani: 0.7
  Binding of serum 37 to looped/cyclic peptide (PEPSCAN-ELISA): 0.8
  Binding of serum 62 to linear peptides of protein X1 of SARS-CoV Urbani: 0.7
  Binding of serum 62 to looped/cyclic peptide (PEPSCAN-ELISA): 0.8
  Binding of serum London to linear peptides of protein X1 of SARS-CoV Urbani: 0.3
  Binding of serum London to looped/cyclic peptide (PEPSCAN-ELISA): 0.3
  Binding of serum SARS-green to linear peptides of protein X1 of SARS-CoV Urbani: 0.5
  Binding of serum SARS-green to looped/cyclic peptide (PEPSCAN-ELISA): 0.5
  Binding of serum SARS-yellow to linear peptides of protein X1 of SARS-CoV Urbani: 0.3
  Binding of serum SARS-yellow to looped/cyclic peptide (PEPSCAN-ELISA): 0.5

## TDTGIENATFFIFNK
[1]
  Binding of Control Serum Blood-Bank to Looped peptides: 0.8
  Binding of Control serum Blood-bank to linear peptides: 0.6
  Binding of Control serum LUMC to linear peptides: 0.4
  Binding of Control serum LUMC to looped peptides: 0.6
[2]
  Binding of a rabbit serum to linear peptides: 0.1
  Binding of a rabbit serum to looped peptides: 0.6
[3]
  Binding of serum 1a to linear peptides of protein X1 of SARS-CoV Urbani: 0.7
  Binding of serum 1a to looped/cyclic peptides of protein X1 of SARS-CoV Urbani: 0.5
  Binding of serum 1b to linear peptides of protein X1 of SARS-CoV Urbani: 0.4
  Binding of serum 1b to looped/cyclic peptides of protein X1 of SARS-CoV Urbani: 0.5
  Binding of serum 2 to linear peptides of protein X1 of SARS-CoV Urbani: 0.5
  Binding of serum 2 to looped/cyclic peptides of protein X1 of SARS-CoV Urbani: 0.5
  Binding of serum 6 to linear peptides of protein X1 of SARS-CoV Urbani: 0.7
  Binding of serum 6 to looped/cyclic peptides of protein X1 of SARS-CoV Urbani: 0.5
  Binding of serum 37 to linear peptides of protein X1 of SARS-CoV Urbani: 0.6
  Binding of serum 37 to looped/cyclic peptides of protein X1 of SARS-CoV Urbani: 0.7
  Binding of serum 62 to linear peptides of protein X1 of SARS-CoV Urbani: 0.5
  Binding of serum 62 to looped/cyclic peptides of protein X1 of SARS-CoV Urbani: 0.7
  Binding of serum London to linear peptides of protein X1 of SARS-CoV Urbani: 0.3
  Binding of serum London to looped/cyclic peptides of protein X1 of SARS-CoV Urbani: 0.3
  Binding of serum SARS-green to linear peptides of protein X1 of SARS-CoV Urbani: 0.5
  Binding of serum SARS-green to looped/cyclic peptides of protein X1 of SARS-CoV Urbani: 0.4
  Binding of serum SARS-yellow to linear peptides of protein X1 of SARS-CoV Urbani: 0.0
  Binding of serum SARS-yellow to looped/cyclic peptides of protein X1 of SARS-CoV Urbani: 0.5

## TFRIAIWNLDVIISS
[1]
  Binding of Control Serum Blood-Bank to Looped peptides of the protein X3 of SARS-CoV Urbani: 0.8
  Binding of Control serum Blood-bank to linear peptides of the protein X3 of SARS-CoV Urbani: 0.8
  Binding of Control serum LUMC to linear peptides of the protein X3 of SARS-CoV Urbani: 0.7
  Binding of Control serum LUMC to looped peptides of the protein X3 of SARS-CoV Urbani: 0.6
[2]
  Rabbit serum linear peptides: 0.3
  Rabbit serum looped peptides: 0.4
[3]
  Binding of serum 1a to linear peptides of protein X3 of SARS-CoV Urbani: 0.8
  Binding of serum 1a to looped/cyclic peptides of protein X3 of SARS-CoV Urbani: 0.7
  Binding of serum 1b to linear peptides of protein X3 of SARS-CoV Urbani: 0.5
  Binding of serum 1b to looped/cyclic peptides of protein X3 of SARS-CoV Urbani: 0.5
  Binding of serum 2 to linear peptides of protein X3 of SARS-CoV Urbani: 0.6
  Binding of serum 2 to looped/cyclic peptides of protein X3 of SARS-CoV Urbani: 0.6
  Binding of serum 6 to linear peptides of protein X3 of SARS-CoV Urbani: 0.5
  Binding of serum 6 to looped/cyclic peptides of protein X3 of SARS-CoV Urbani: 0.3
  Binding of serum 37 to linear peptides of protein X3 of SARS-CoV Urbani: 0.6
  Binding of serum 37 to looped/cyclic peptides of protein X3 of SARS-CoV Urbani: 0.6
  Binding of serum 62 to linear peptides of protein X3 of SARS-CoV Urbani: 0.7
  Binding of serum 62 to looped/cyclic peptides of protein X3 of SARS-CoV Urbani: 0.7
  Binding of serum London to linear peptides of protein X3 of SARS-CoV Urbani: 0.7
  Binding of serum London to looped/cyclic peptides of protein X3 of SARS-CoV Urbani: 0.2
  Binding of serum SARS-green to linear peptides of protein X3 of SARS-CoV Urbani: 0.4
  Binding of serum SARS-green to looped/cyclic peptides of protein X3 of SARS-CoV Urbani: 0.2
  Binding of serum SARS-yellow to linear peptides of protein X3 of SARS-CoV Urbani: 0.6
  Binding of serum SARS-yellow to looped/cyclic peptides of protein X3 of SARS-CoV Urbani: 0.5

## THFAFACADGTRHTY
[1]
  Binding of Control Serum Blood-Bank to Looped peptides: 0.7
  Binding of Control serum Blood-bank to linear peptides: 0.7
  Binding of Control serum LUMC to linear peptides: 0.7
  Binding of Control serum LUMC to looped peptides: 0.7
[2]
  Rabbit serum linear peptides: 0.4
  Rabbit serum looped peptides: 0.5
[3]
  Binding of serum 1a to linear peptides of protein X4 of SARS-CoV Urbani: 0.7
  Binding of serum 1a to looped/cyclic peptides of protein X4 of SARS-CoV Urbani: 0.7
  Binding of serum 1b to linear peptides of protein X4 of SARS-CoV Urbani: 0.5
  Binding of serum 1b to looped/cyclic peptides of protein X4 of SARS-CoV Urbani: 0.5
  Binding of serum 2 to linear peptides of protein X4 of SARS-CoV Urbani: 0.5
  Binding of serum 2 to looped/cyclic peptides of protein X4 of SARS-CoV Urbani: 0.5
  Binding of serum 6 to linear peptides of protein X4 of SARS-CoV Urbani: 0.6
  Binding of serum 6 to looped/cyclic peptides of protein X4 of SARS-CoV Urbani: 0.5
  Binding of serum 37 to linear peptides of protein X4 of SARS-CoV Urbani: 0.6
  Binding of serum 37 to looped/cyclic peptides of protein X4 of SARS-CoV Urbani: 0.6
  Binding of serum 62 to linear peptides of protein X4 of SARS-CoV Urbani: 0.7
  Binding of serum 62 to looped/cyclic peptides of protein X4 of SARS-CoV Urbani: 0.6
  Binding of serum London to linear peptides of protein X4 of SARS-CoV Urbani: 0.7
  Binding of serum London to looped/cyclic peptides of protein X4 of SARS-CoV Urbani: 0.3
  Binding of serum SARS-green to linear peptides of protein X4 of SARS-CoV Urbani: 0.5
  Binding of serum SARS-green to looped/cyclic peptides of protein X4 of SARS-CoV Urbani: 0.4
  Binding of serum SARS-yellow to linear peptides of protein X4 of SARS-CoV Urbani: 0.2
  Binding of serum SARS-yellow to looped/cyclic peptides of protein X4 of SARS-CoV Urbani: 0.5
